# Experimental data: ChEMBL document CHEMBL4402554, “Discovery of a Bromodomain and Extraterminal Inhibitor with a Low Predicted Human Dose through Synergistic Use of Encoded Library Technology and Fragment Screening” (J Med Chem, 2020)
# Several values for one entry are separate records, joined by “and”; a condition that tells them apart may be missing. Identical values can stand only once. Activity calls are given as the source filed them. No cut-off for these calls is given here.
# Columns and labels:
# [1] = target: T1, Bromodomain-containing protein 4 (Homo sapiens, UniProt O60885, Y390A); assay: Displacement of Alexa Fluor 647 labelled ligand from recombinant human N-terminal His6-tagged BRD4 BD1 (1 to 477 residues)/BD2 Y390A mutant incubated for 30 mins by TR-FRET assay
# [2] = target: Bromodomain adjacent to zinc finger domain protein 2A (Homo sapiens, UniProt Q9UIF9); assay: Inhibition of BAZ2A (unknown origin) by TR-FRET assay
# [3] = Metabolic stability in rat liver microsomes; type: ADME, Microsome
# [4] = Stability in rat hepatocytes; type: ADME, cell-based, Hepatocyte
# [5] = Fraction unbound in rat plasma at 1 mg/kg, iv; type: ADME, organism-based
# [6] = Unbound clearance in rat at 1 mg/kg, iv; type: ADME, organism-based; settings: in vivo
# [7] = Clearance in rat at 1 mg/kg, iv; type: ADME, organism-based; settings: in vivo
# [8] = Volume of distribution at steady state in rat at 1 mg/kg, iv; type: ADME, organism-based; settings: in vivo, read-out: Vdss
# [9] = Half life in rat at 1 mg/kg, iv; type: ADME, organism-based; settings: in vivo
# [10] = Metabolic stability in dog liver microsomes; type: ADME, Canis lupus familiaris, Microsome
# [11] = Stability in dog hepatocytes; type: ADME, cell-based, Canis lupus familiaris, Hepatocyte
# [12] = Fraction unbound in dog plasma at 0.5 mg/kg, iv; type: ADME, organism-based, Canis lupus familiaris
# [13] = Clearance in dog at 0.5 mg/kg, iv; type: ADME, organism-based, Canis lupus familiaris; settings: in vivo
# [14] = Unbound clearance in dog at 0.5 mg/kg, iv; type: ADME, organism-based, Canis lupus familiaris; settings: in vivo
# [15] = Volume of distribution at steady state in dog at 0.5 mg/kg, iv; type: ADME, organism-based, Canis lupus familiaris; settings: in vivo; for Vd: read-out: Vdss
# [16] = Half life in dog at 0.5 mg/kg, iv; type: ADME, organism-based, Canis lupus familiaris; settings: in vivo
# [17] = Oral bioavailability in dog at 1 mg/kg; type: ADME, organism-based, Canis lupus familiaris; settings: in vivo
# [18] = Metabolic stability in human liver microsomes; type: ADME, Microsome
# [19] = Stability in human hepatocytes; type: ADME, cell-based, Hepatocyte
# [20] = Fraction unbound in human plasma; type: ADME, cell-free
# Homo sapiens = species: Homo sapiens; assay: Selectivity ratio of pIC50 for Alexa Fluor 647 labelled ligand from recombinant human N-terminal His6-tagged BRD4 BD1 (1 to 477 residues)/BD2 Y390A mutant to pIC50 for BAZ2A (unknown origin)
# [21] = Oral bioavailability in rat at 3 mg/kg; settings: in vivo
# [22] = Lipophilicity, log D of the compound at pH 7.4 by chromatographic method; type: physicochemical; settings: buffer
# Blood [23] = assay: Inhibition of LPS-induced IL6 production in human whole blood preincubated for 30 mins followed by LPS addition measured after 18 to 24 hrs; type: functional, tissue-based
# Blood [24] = assay: Inhibition of LPS-induced MCP1 production in human whole blood preincubated for 30 mins followed by LPS addition measured after 18 to 24 hrs; type: functional, tissue-based
# [25] = Solubility of compound in pH 6.5 FASSIF at 1 mg incubated for 4 hrs by HPLC-UV analysis; type: physicochemical
# [26] = Metabolic stability in CD-1 mouse liver microsomes; type: ADME, Microsome
# [27] = Stability in CD-1 mouse hepatocytes; type: ADME, cell-based, Hepatocyte
# [28] = AUC (0 to infinity) in CD-1 mouse at 3 mg/kg, po; type: ADME, organism-based; parameters: dose 3 mg/kg, route oral, time infinity; settings: in vivo
# [29] = AUC (0 to infinity) in rat at 3 mg/kg, po; type: ADME, organism-based; parameters: dose 3 mg/kg, route oral, time infinity; settings: in vivo
# [30] = AUC (0 to infinity) in rat at 30 mg/kg, po; type: ADME, organism-based; parameters: dose 30 mg/kg, route oral, time infinity; settings: in vivo
# [31] = Oral bioavailability in rat at 30 mg/kg; type: ADME, organism-based; settings: in vivo
# [32] = AUC (0 to infinity) in dog at 1.5 mg/kg, po; type: ADME, organism-based, Canis lupus familiaris; parameters: dose 1.5 mg/kg, route oral, time infinity; settings: in vivo
# Mus musculus [33] = assay: Antiinflammatory activity in LPS-challenged CD-1 mouse assessed as reduction in cytokine production at 1 to 10 mg/kg, po administrated as single dose 30 mins prior to LPS challenge measured after 5 hrs by immunoassay; type: functional, organism-based
# Mus musculus [34] = assay: Antiinflammatory activity in TNP-KLH- treated CD-1 mouse T cell-dependent immunization model assessed as IgG1 level at 3 mg/kg, po qd treated for 0.5 hrs followed by TNP-KLH treatment and measured after 14 days by ELISA analysis; type: functional
# Mus musculus [35] = assay: Antiinflammatory activity in TNP-KLH- treated CD-1 mouse T cell-dependent immunization model assessed as IgG1 level at 0.3 mg/kg, po qd treated for 0.5 hrs followed by TNP-KLH treatment and measured after 14 days by ELISA analysis; type: functional
# Mus musculus [36] = assay: Antiinflammatory activity in TNP-KLH- treated CD-1 mouse T cell-dependent immunization model assessed as IgG1 level at 3 mg/kg, po qod treated for 0.5 hrs followed by TNP-KLH treatment and measured after 14 days by ELISA analysis; type: functional
# [37] = target: T1, Bromodomain-containing protein 4; assay: Displacement of Alexa Fluor 647 labelled ligand from recombinant human N-terminal His6-tagged BRD4 BD1 (1 to 477 residues)/BD2 Y390A mutant incubated for 60 mins by fluorescence polarization assay
# Bromodomain adjacent to zinc finger domain protein 2A, sequence (Q9UIF9 whole entry, the tested form may be a part): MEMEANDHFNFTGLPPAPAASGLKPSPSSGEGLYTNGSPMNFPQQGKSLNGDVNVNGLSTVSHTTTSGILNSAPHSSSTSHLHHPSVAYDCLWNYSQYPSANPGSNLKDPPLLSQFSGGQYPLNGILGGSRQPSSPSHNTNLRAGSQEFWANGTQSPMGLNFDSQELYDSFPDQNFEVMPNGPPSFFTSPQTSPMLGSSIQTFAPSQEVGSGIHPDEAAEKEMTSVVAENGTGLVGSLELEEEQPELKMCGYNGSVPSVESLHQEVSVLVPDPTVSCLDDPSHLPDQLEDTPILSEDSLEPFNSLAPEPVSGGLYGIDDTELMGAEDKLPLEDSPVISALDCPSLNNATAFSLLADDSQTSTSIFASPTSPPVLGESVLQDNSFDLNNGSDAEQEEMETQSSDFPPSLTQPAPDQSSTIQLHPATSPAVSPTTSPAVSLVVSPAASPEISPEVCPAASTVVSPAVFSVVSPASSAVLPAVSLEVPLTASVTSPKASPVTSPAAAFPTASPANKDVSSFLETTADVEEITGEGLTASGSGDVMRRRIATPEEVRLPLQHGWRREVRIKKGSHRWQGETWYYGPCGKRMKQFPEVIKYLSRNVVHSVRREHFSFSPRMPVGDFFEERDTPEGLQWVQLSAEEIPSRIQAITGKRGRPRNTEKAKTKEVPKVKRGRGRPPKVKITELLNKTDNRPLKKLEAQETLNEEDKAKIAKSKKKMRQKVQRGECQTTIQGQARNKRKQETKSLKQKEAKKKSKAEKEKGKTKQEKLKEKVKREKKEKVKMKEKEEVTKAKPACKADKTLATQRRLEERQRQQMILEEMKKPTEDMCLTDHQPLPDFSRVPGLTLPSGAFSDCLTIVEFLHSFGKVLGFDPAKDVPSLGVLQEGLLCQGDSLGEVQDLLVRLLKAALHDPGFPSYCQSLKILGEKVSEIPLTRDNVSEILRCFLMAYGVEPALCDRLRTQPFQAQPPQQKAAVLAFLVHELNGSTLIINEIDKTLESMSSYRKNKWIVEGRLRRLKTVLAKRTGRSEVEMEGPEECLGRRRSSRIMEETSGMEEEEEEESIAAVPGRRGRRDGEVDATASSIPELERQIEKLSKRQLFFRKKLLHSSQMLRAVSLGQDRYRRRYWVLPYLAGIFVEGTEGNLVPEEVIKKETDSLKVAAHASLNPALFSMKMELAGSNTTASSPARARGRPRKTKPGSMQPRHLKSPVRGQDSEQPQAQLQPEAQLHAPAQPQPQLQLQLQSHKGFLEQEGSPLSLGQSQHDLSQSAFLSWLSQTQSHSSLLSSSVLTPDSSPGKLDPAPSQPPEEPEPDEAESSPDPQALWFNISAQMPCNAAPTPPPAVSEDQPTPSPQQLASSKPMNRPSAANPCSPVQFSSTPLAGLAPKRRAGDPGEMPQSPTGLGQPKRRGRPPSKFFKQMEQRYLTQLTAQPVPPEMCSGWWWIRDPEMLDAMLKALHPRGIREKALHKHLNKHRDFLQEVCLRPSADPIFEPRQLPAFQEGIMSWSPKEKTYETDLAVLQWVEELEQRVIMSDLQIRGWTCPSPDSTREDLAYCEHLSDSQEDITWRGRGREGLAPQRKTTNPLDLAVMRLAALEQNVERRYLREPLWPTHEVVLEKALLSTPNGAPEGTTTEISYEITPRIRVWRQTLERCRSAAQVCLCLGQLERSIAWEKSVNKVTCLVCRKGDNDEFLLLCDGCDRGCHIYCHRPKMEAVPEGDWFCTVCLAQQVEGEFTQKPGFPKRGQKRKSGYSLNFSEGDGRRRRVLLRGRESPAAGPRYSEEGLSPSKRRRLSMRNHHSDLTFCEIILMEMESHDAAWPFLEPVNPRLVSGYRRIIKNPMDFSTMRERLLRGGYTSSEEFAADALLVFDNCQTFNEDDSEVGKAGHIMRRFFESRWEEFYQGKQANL
structure (smiles),measurement,setting,value
COCC(COC)n1c(-c2cc(C)c(=O)n(C)c2)nc2ccccc21,IC50,[1],39.8 nM
same,IC50,[2],> 100000 nM
same,Stability,[3],< 0.46 mL/min/g
same,Stability,[4],1.1 mL/min/g
same,fraction unbound,[5],0.59
same,CL free,[6],63 mL/min/kg
same,clearance,[7],37 mL/min/kg
same,Vd,[8],2.1 L/kg
same,half-life,[9],3.2 h
same,Stability,[10],< 0.37 mL/min/g
same,Stability,[11],< 1.3 mL/min/g
same,fraction unbound,[12],0.57
same,clearance,[13],5 mL/min/kg
same,CL free,[14],9 mL/min/kg
same,Vd,[15],0.8 L/kg
same,half-life,[16],1.7 h
same,bioavailability,[17],46%
same,Stability,[18],< 0.4 mL/min/g
same,Stability,[19],< 0.87 mL/min/g
same,fraction unbound,[20],0.37
same,Ratio pIC50,Homo sapiens,> 3.7
same,bioavailability,[21],46%
COCC(C)n1c(-c2cc(C)c(=O)n(C)c2)nc2ccccc21 (racemic),IC50,[1],316 nM
same,IC50,[2],39800 nM
same,Ratio pIC50,Homo sapiens,2.1
Cc1cc(-c2nc3ccccc3n2C(C)C2CCOCC2)cn(C)c1=O (configuration not stated),Ratio pIC50,Homo sapiens,1.4 and 0.9
CNC(=O)c1ccc2c(c1)nc(-c1cc(C)c(O)c(C)c1)n2CC1CCNCC1,IC50,[1],2000 nM
same,chromatographic logD,[22],0.8
Cc1cc(-c2nc3ccccc3n2CC2CCOCC2)cn(C)c1=O,IC50,Blood [23],200 nM
same,IC50,Blood [24],251 nM
same,IC50,[2],316 nM
same,solubility at 4 h,[25],> 1000 µg/mL
same,Stability,[3],3.2 mL/min/g
same,Stability,[4],17 mL/min/g
same,fraction unbound,[5],0.55
same,CL free,[6],149 mL/min/kg
same,clearance,[7],82 mL/min/kg
same,Vd,[8],1.4 L/kg
same,half-life,[9],0.2 h
same,Stability,[10],< 0.37 mL/min/g
same,Stability,[11],< 1.3 mL/min/g
same,fraction unbound,[12],0.47
same,clearance,[13],8 mL/min/kg
same,CL free,[14],17 mL/min/kg
same,Vd,[15],1.4 L/kg
same,half-life,[16],2.3 h
same,bioavailability,[17],97%
same,Stability,[18],0.83 mL/min/g
same,Stability,[19],< 0.87 mL/min/g
same,fraction unbound,[20],0.4
Cc1cc(-c2nc3ccccc3n2CC2CCCOC2)cn(C)c1=O (configuration not stated),IC50,[1],31.6 nM and 25.1 nM
same,IC50,[2],25100 nM and 79400 nM
Cc1cc(-c2nc3cc(N4CCOCC4)ccc3n2CC2CCOCC2)cn(C)c1=O,IC50,[1],10 nM
same,chromatographic logD,[22],2.3
same,IC50,Blood [24],12.6 nM
same,solubility at 4 h,[25],> 1000 µg/mL
CC(=O)N1CCC(Cn2c(-c3cc(C)c(O)c(C)c3)nc3ccccc32)CC1,IC50,[1],501 nM
CC(=O)N1CCC(n2c(-c3cc(C)c(O)c(C)c3)nc3ccccc32)CC1,IC50,[1],1580 nM
CCC(C1CCOCC1)n1c(-c2cc(C)c(=O)n(C)c2)nc2ccccc21 (configuration not stated),IC50,[1],794 nM and 158 nM
same,Ratio pIC50,Homo sapiens,> 2.1 and 1.6
O=C(CO)N1CCC(Cn2c(-c3ccc(=O)[nH]c3)nc3ccccc32)CC1,IC50,[1],> 50100 nM
COCC(COC)n1c(-c2cc(C)c(=O)n(C)c2)nc2cc(N3CCOCC3)ccc21,IC50,Blood [23],20 nM
same,IC50,Blood [24],25.1 nM
same,IC50,[2],63100 nM
same,Stability,[3],< 0.46 mL/min/g
same,Stability,[4],< 0.8 mL/min/g
same,fraction unbound,[5],0.69
same,CL free,[6],24 mL/min/kg
same,clearance,[7],17 mL/min/kg
same,Vd,[8],2.3 L/kg
same,half-life,[9],3.8 h
same,Stability,[10],< 0.37 mL/min/g
same,Stability,[11],< 1.3 mL/min/g
same,fraction unbound,[12],0.5
same,CL free,[14],4 mL/min/kg
same,Vdss,[15],0.9 L/kg
same,t1/2,[16],5.3 h
same,bioavailability,[17],101%
same,Stability,[18],< 0.4 mL/min/g
same,Stability,[19],< 0.87 mL/min/g
same,fraction unbound,[20],0.72
same,Stability,[26],< 0.48 mL/min/g
same,Stability,[27],< 1 mL/min/g
same,AUC(0-inf),[28],3620 ng·h/mL
same,AUC(0-inf),[29],2610 ng·h/mL
same,AUC(0-inf),[30],27000 ng·h/mL
same,bioavailability,[31],93%
same,AUC(0-inf),[32],12500 ng·h/mL
same,Activity,Mus musculus [33],Active
same,Activity,Mus musculus [34],20%
same,Activity,Mus musculus [35],65%
same,Activity,Mus musculus [36],65%
same,bioavailability,[21],94%
CC(=O)N[C@H]1CC[C@H](Cn2c(-c3cc(C)c(O)c(C)c3)nc3ccccc32)CC1,IC50,[1],1580 nM
CNC(=O)c1ccc2c(c1)nc(-c1cc(C)c(O)c(C)c1)n2CC1CCN(C(=O)c2ccccc2)CC1,IC50,[37],126 nM
same,IC50,[1],200 nM
same,chromatographic logD,[22],3.2
Cc1cc(-c2nc3cc(N(C)C)ccc3n2CC2CCOCC2)cn(C)c1=O,chromatographic logD,[22],2.9
CNC(=O)c1ccc2c(c1)nc(-c1cc(C)c(O)c(C)c1)n2CC1CCN(C(C)=O)CC1,IC50,[37],251 nM
same,chromatographic logD,[22],2
Cc1cc(-c2nc3ccccc3n2CCC2CCOCC2)cn(C)c1=O,IC50,[1],50.1 nM
same,IC50,[2],39800 nM
same,Ratio pIC50,Homo sapiens,2.9
Cc1cc(-c2nc3ccccc3n2CC2CC3(COC3)C2)cn(C)c1=O,IC50,[1],50.1 nM
same,IC50,[2],63100 nM
same,Stability,[3],0.99 mL/min/g
same,Stability,[18],< 0.4 mL/min/g
same,Ratio pIC50,Homo sapiens,3.1
CC(=O)N1CC(Cn2c(-c3cc(C)c(O)c(C)c3)nc3ccccc32)C1,IC50,[1],1580 nM
CC(=O)N[C@H]1CC[C@@H](Cn2c(-c3cc(C)c(O)c(C)c3)nc3ccccc32)CC1,IC50,[1],501 nM
Cn1cc(-c2nc[nH]c2-c2ccc(F)cc2)ccc1=O,IC50,[1],6310 nM
CC(=O)N1CCC(Cn2c(-c3cc(C)c(O)c(C)c3)nc3ccccc32)C1 (racemic),IC50,[1],2510 nM
Cc1cc(-c2nc3ccccc3n2CC2CCN(C(=O)CO)CC2)c[nH]c1=O,IC50,[1],1580 nM
Cc1cc(-c2nc3ccccc3n2C[C@H]2CC[C@H](O)CC2)cn(C)c1=O,IC50,[1],79.4 nM
same,IC50,[2],50100 nM
same,Ratio pIC50,Homo sapiens,2.8
Cn1cc(-c2nc3ccccc3n2CC2CCN(C(=O)CO)CC2)ccc1=O,IC50,[1],7940 nM
